Reference: article PMC8165160, “Substrate Specificities and Inhibition Pattern of the Solute Carrier Family 10 Members NTCP, ASBT and SOAT” (Frontiers in Molecular Biosciences, 2021)
Counter-ions that a name gives are not always drawn. Like-named read-outs stand apart in the source and are kept apart here.

Tests used:
NTCP = biological target: T1, NTCP (Homo sapiens, UniProt Q14973); test: Substrate screening: sodium-dependent uptake of radiolabeled compounds in NTCP-HEK293 cells; type: cell-based; design: The full-length open reading frames of NTCP, ASBT, and SOAT were cloned; expressed in transfected cells; host or cells: Flp-In T-REX HEK293 (NTCP-HEK293), tetracycline-induced; conditions: NTCP-HEK293, vs sodium-free control
T1 sequence (Q14973 1-349): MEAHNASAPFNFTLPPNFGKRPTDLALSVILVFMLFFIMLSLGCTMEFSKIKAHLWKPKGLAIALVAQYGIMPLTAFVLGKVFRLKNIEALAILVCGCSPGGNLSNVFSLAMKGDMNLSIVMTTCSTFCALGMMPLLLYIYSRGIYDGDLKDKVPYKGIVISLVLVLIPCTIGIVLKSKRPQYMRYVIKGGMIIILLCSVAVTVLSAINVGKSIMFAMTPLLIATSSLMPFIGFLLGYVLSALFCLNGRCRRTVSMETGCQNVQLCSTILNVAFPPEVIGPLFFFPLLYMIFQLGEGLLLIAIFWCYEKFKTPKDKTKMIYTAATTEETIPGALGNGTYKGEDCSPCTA
Protocol: Stably SLC10 transporter transfected NTCP-HEK293, ASBT-HEK293, SOAT-HEK293 cells and the HEK293-FlpIn maternal cell line were seeded on 24-well plates (if not stated otherwise for individual assays). Well plates were coated with poly-D-lysine prior to seeding of 125,000 cells per well. Cells were grown with 1 ml of standard medium per well with or without tetracycline ([…]) for 72 h to induce carrier expression before respective assays were started. HEK293-FlpIn cells were cultivated with standard medium and served as control.
Uptake experiments were initiated by replacing the preincubation buffer by 500 μL transport buffer containing the radiolabeled test compound and were performed at 37°C. Transport was terminated by removing the transport buffer and washing five-times with ice-cold PBS. Cell monolayers were lysed in 1 N NaOH with 0.1% SDS and the cell-associated radioactivity was determined by liquid scintillation counting.
FIGURE 1 Comparative substrate screening for bile acids and sulfated steroids in NTCP-, ASBT-, and SOAT-HEK293 cells. Transport assays were performed with the indicated substrates in NTCP-HEK293, ABST-HEK293, SOAT-HEK293, and HEK293-FlpIn cells. Cells were washed and equilibrated with Na^+-containing transport buffer (filled bars) or with Na^+-free transport buffer (open bars) at 37°C. For uptake, cells were incubated with radiolabeled steroid compounds at a final concentration of 200 nM in Na^+-containing or Na^+-free transport buffer for 10 min. Radiolabeled bile acids were used at 1 µM concentrations and transport was analyzed over 30 min. HEK293-FlpIn cells served as additional controls. After the indicated time intervals, cells were washed with ice-cold PBS, lysed and subjected to liquid scintillation counting. […] 3-OH, trihydroxylated BAs; 2-OH, dihydroxylated BAs; 1-OH, monohydroxylated BAs.

SOAT = biological target: T2, SOAT (Homo sapiens, UniProt Q3KNW5); test: Transport inhibition in SOAT-HEK293 cells; type: cell-based; conditions: substrate inhibitors, 1 min after 5 min preincubation
T2 construct: The full-length open reading frames of NTCP, ASBT, and SOAT were cloned; expressed in transfected cells; host or cells: Flp-In T-REX HEK293 (SOAT-HEK293), tetracycline-induced
T2 sequence (Q3KNW5 1-377): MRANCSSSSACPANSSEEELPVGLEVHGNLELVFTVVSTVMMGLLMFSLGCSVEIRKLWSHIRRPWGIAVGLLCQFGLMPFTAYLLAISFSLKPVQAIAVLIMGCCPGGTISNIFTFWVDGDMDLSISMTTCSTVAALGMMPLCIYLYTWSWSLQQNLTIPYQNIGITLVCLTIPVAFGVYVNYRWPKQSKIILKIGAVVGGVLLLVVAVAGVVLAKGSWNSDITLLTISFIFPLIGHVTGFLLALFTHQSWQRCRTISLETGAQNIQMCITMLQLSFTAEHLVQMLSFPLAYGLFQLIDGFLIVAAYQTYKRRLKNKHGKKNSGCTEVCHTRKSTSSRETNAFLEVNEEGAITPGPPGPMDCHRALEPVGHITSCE
Protocol: Cells were washed three times with PBS and were preincubated with the respective inhibitor in sodium transport buffer for 5 min at 37°C. Uptake was initiated by adding the respective radiolabeled substrate to the well and incubating for a fixed time as indicated in the figures at 37°C. Transport was terminated by removing the transport buffer and washing five-times with ice-cold PBS. Cell monolayers were lysed in 1 N NaOH with 0.1% SDS and the cell-associated radioactivity and protein content was determined as described above. For uptake inhibition with the myr-preS1 peptide the sodium transport buffer contained additionally MEM-amino acid solution (ThermoFisher) at 1:50 dilution.
All transport or inhibition graphs were generated with GraphPad Prism 6.0 (GraphPad). Determination of IC50 values was done by nonlinear regression analysis using the equation log (inhibitor) vs. response settings. If not stated otherwise in the legends all data represent means ± SD of at least triplicate determinations of representative experiments.
FIGURE 3 Inhibition of NTCP, ASBT, and SOAT with substrate inhibitors. Transport of [^3H]TC, [^3H]TLC, and [^3H]DHEAS was analyzed in NTCP-HEK293, ASBT-HEK293, and SOAT-HEK293 cells in the presence of the substrate inhibitors TC, TLC, and DHEAS at increasing concentrations ranging from 100 nM till 1000 µM. After 5 min of preincubation with the respective inhibitory compound, 200 nM [^3H]TLC, [^3H]TC or [^3H]DHEAS were added for additional 1 min and the cell lysates were analyzed by liquid scintillation counting. Unspecific uptake of HEK293-FlpIn cells was set to 0%. Carrier-specific uptake without inhibitor was set to 100%.
Transport of [^3H]TC, [^3H]TLC, and [^3H]DHEAS was analyzed in NTCP-HEK293, ASBT-HEK293, and SOAT-HEK293 cells in the presence of different supposed non-substrate triterpenoid inhibitors as indicated at increasing concentrations ranging from 100 nM till 1000 µM. After 5 min of preincubation with the respective inhibitory compound, 1 µM [^3H]TLC, [^3H]TC or [^3H]DHEAS were added for additional 10 min at 37°C and the cell lysates were analyzed by liquid scintillation counting. Experiments performed without inhibitor were set to 100%. Means of negative controls were subtracted to calculate net transport rates (expressed as percentage of control). Data represent means ± SD of quadruplicate determinations of representative experiments.

[1] = SOAT IC50, substrate [3H]DHEAS, 200 nM [3H]DHEAS
[2] = SOAT IC50, substrate [3H]TLC, 200 nM [3H]TLC
[3] = radiolabeled bile acids 1 µM, 30 min

Which “Transport activity grading NTCP (mean uptake)” value (“Transport activity grading NTCP” for short) (NTCP; radiolabeled steroid compounds 200 nM, 10 min) does the source give for `C[C@]12CC[C@H](OS(=O)(=O)O)CC1=CC[C@@H]1[C@@H]2CC[C@]2(C)C(=O)CC[C@@H]12` [DHEAS, Dehydroepiandrosterone sulfate] here?
Its value is “+ (Mean uptake “+” for values below 10)”.

What about the IC50 (SOAT; [1]) of the same molecule?
Its IC50 is 51.7 µM.

And the IC50 (SOAT; [2])?
Its IC50 is 15 µM.

How did the “Transport activity grading NTCP” value (NTCP; [3]) turn out when `C[C@H](CCC(=O)NCCS(=O)(=O)O)[C@H]1CC[C@H]2[C@@H]3[C@H](O)C[C@@H]4C[C@H](O)CC[C@]4(C)[C@H]3C[C@H](O)[C@]12C` [Taurocholic acid] was run?
Its value is “+++ (“+++” for values above 1000 pmol/mg protein/30 min)”.

What about the IC50 (SOAT; [1]) of the same molecule?
Its IC50 is 99.7 µM.

And the IC50 (SOAT; [2])?
Its IC50 is 143 µM.

For `C[C@H](CCC(=O)NCCS(=O)(=O)O)[C@H]1CC[C@H]2[C@@H]3CC[C@@H]4C[C@H](O)CC[C@]4(C)[C@H]3CC[C@]12C` [Taurolithocholic acid], which “Transport activity grading NTCP” value (NTCP; [3]) is on record?
The value was “+++ (“+++” for values above 1000 pmol/mg protein/30 min)”.

What about the IC50 (SOAT; 200 nM [3H]DHEAS, read-out: SOAT IC50, substrate [3H]DHEAS) of the same molecule?
The IC50 was 3.9 µM.

What about the IC50 (SOAT; 200 nM [3H]TLC, read-out: SOAT IC50, substrate [3H]TLC) of the same molecule?
Its IC50 is 2.6 µM.
